From patent publication US8246944B2, “Immunotherapeutic agent for the combined treatment of tuberculosis in association with other drugs” (Archivel Farma, S.L., priority 2003, dated 2012) come the findings set out here.

In test [1] the test system is virulent strain of Mycobacterium tuberculosis. Description: […]; bacillary concentration in left lung and spleen. The following applies: Control: isoniazid only 25 mg/kg per day, 5 days per week, 6 weeks (weeks 9-15); killed week 15. The test is classed as in vivo, BALB/c mice.
Test [2] has the same test system. Described as above. The test is classed as in vivo, C57BL/6 mice. The settings on record: Control: isoniazid alone 25 mg/kg per day, 5 days per week, weeks 9-17.

Turning to `NNC(=O)c1ccncc1` [isoniazid], in test [1], the “Bacillary concentration, Lung” value is reported as 7.5 ± 2.89 UFC/mL and the “Bacillary concentration, Spleen” value came out at 0.75 ± 0.33 UFC/mL. In test [2] (sacrificed week 15), the “Bacillary concentration, lungs, Week 15” value stood at 2.34 ± 0.24 log10 UFC/mL and the “Bacillary concentration, spleen, Week 15” value was determined as 1.47 ± 0.44 log10 UFC/mL. Besides, in test [2] (sacrificed week 28), the “Bacillary concentration, lungs, Week 28” value was found to be 3.86 ± 0.41 log10 UFC/mL and the “Bacillary concentration, spleen, Week 28” value was found to be 3.84 ± 0.48 log10 UFC/mL.
